The species entered for assay [1] is Bos taurus. As to the kind of experiment: Inhibition of beef heart mitochondrial NADH oxidase assessed as specific activity at 0.35 mM preincubated for 15 mins relative to control. On the set-up: scale not given: the % may be the effect or the level left.
The species entered for a further assay is Rattus norvegicus. Nature of the assay: Inhibition of rat liver mitochondrial ATPase assessed as specific activity at 0.42 mM relative to control. On the set-up: scale not given: the % may be the effect or the level left.
For assay [2], the species on record is Bos taurus. As to the kind of experiment: Inhibition of beef heart mitochondrial succinoxidase assessed as specific activity at 0.35 mM preincubated for 15 mins relative to control. On the set-up: scale not given: the % may be the effect or the level left.
Assay [3] is described as follows: Inhibition of beef heart mitochondrial NADH oxidase assessed per mg of protein. More on the design: species or system Bos taurus. To be noted: read-out: I50.
Assay [4] is described as follows: Inhibition of rat liver mitochondrial ATPase assessed per mg of protein. To be noted: read-out: I50.
Assay [5] in a line: Inhibition of beef heart mitochondrial succinoxidase assessed per mg of protein. More on the design: species or system Bos taurus. Conditions: read-out: I50.
Assay [6] is filed under the species Bos taurus. Nature of the assay: Inhibition of beef heart mitochondrial NADH oxidase assessed as complete enzyme inhibition at 100 nmol/mg.

SMILES strings stand for the structures. Active and inactive are the calls of the source. The calls are words filed in the database; no cut-off is given here.

Regarding `COc1ccc(-c2oc3cc(O)cc(O)c3c(=O)c2O)cc1`, the Activity was 70.6% in the assay listed under Bos taurus [1], 96.1% in the assay listed under Rattus norvegicus and 98.7% in the assay listed under Bos taurus [2].

On to `COc1ccccc1-c1cc(=O)c2c(OC)cccc2o1`, for which the Activity in the assay filed under Bos taurus [1] was 86.9%; in the assay listed under Rattus norvegicus, 77.3%; in the assay listed under Bos taurus [2], 80.8%.

On to `O=c1c(O)c(-c2ccc(O)cc2)oc2cc(O)cc(O)c12`, for which the Activity in the assay listed under Bos taurus [1] stood at 59.3%; in the assay listed under Rattus norvegicus, 94.2%; in the assay filed under Bos taurus [2], 84.4%.

Turning to `O=c1c(-c2ccc(O)cc2)coc2cc(O)cc(O)c12` [GENISTEIN], the Activity in the assay filed under Bos taurus [1] was 6.6%; in the assay filed under Rattus norvegicus, 69.2%; in the assay filed under Bos taurus [2], 98.3%. Also, the IC50 in assay [3] turned out to be 365 nmol/mg.

With `O=C1CC(c2ccccc2)Oc2ccccc21` (centres undefined) [FLAVANONE], the Activity in the assay filed under Bos taurus [1] came out at 6.5%; in the assay filed under Rattus norvegicus, 73.4%; in the assay filed under Bos taurus [2] it was 84.8%. Further, the IC50 in assay [3] came out at 310 nmol/mg.

With `O=C1c2c(O)cc(O)cc2O[C@H](c2ccc(O)c(O)c2)[C@H]1O` [(+)-TAXIFOLIN], in assay [3], the IC50 turned out to be 1040 nmol/mg.

For `O=c1c(O)c(-c2ccccc2)oc2cc(O)cc(O)c12` [GALANGIN], the values for the Activity in the assay filed under Bos taurus [1], in the assay listed under Rattus norvegicus and in the assay listed under Bos taurus [2] were 48.6%, 99.9% and 92.4%, respectively. Besides, the IC50 in assay [3] worked out at 1670 nmol/mg.

Consider `O=C1C[C@@H](c2ccc(O)cc2)Oc2cc(O)cc(O)c21` [NARINGENIN], for which the Activity in the assay filed under Bos taurus [1] was 83.9%; in the assay listed under Rattus norvegicus it was 43.6%; in the assay filed under Bos taurus [2], 84.8%. The IC50 in assay [4] came to 1800 nmol/mg.

Regarding `O=c1c(O)c(-c2ccc(O)c(O)c2)oc2cc(O)ccc12` [FISETIN], the figures for the IC50 in assay [5], in assay [4] and in assay [3] were 45 nmol/mg, 480 nmol/mg and 15 nmol/mg, respectively. Further, the Activity in the assay filed under Bos taurus [1] turned out to be 8.3%; in the assay filed under Rattus norvegicus, 17.2%; in the assay filed under Bos taurus [2] it was 9.6%. For the same compound, the result in the assay filed under Bos taurus [6] was Active.

Regarding `O=c1cc(-c2ccccc2)oc2cccc(O)c12` [5-HYDROXYFLAVONE], the values for the Activity in the assay listed under Bos taurus [1], in the assay filed under Rattus norvegicus and in the assay listed under Bos taurus [2] were 14.6%, 98.9% and 95.7%, respectively. Further, the IC50 in assay [3] was found to be 425 nmol/mg.

Consider `O=C1c2ccc(O)cc2O[C@H](c2ccc(O)c(O)c2)[C@H]1O` [FUSTIN], for which the IC50 in assay [3] was found to be 671 nmol/mg.

For the compound `O=c1c(O)c(-c2ccc(O)c(O)c2)oc2cc(O)cc(O)c12` [QUERCETIN], the IC50 in assay [5] came to 715 nmol/mg; in assay [4], 205 nmol/mg; in assay [3] it was 145 nmol/mg. The Activity in the assay filed under Bos taurus [1] is 6.4%; in the assay listed under Rattus norvegicus it was 7.1%; in the assay listed under Bos taurus [2] it was 21.8%.

Regarding `O=c1cc(-c2ccccc2)oc2ccccc12` [FLAVONE], the Activity in the assay listed under Bos taurus [1] worked out at 14.5%; in the assay listed under Rattus norvegicus, 67.4%; in the assay filed under Bos taurus [2], 82%. For the same compound, in assay [3], the IC50 was found to be 240 nmol/mg.

Turning to `COc1ccc(-c2cc(=O)c3c(O)cc(O)cc3o2)cc1`, the results for the Activity in the assay filed under Bos taurus [1], in the assay filed under Rattus norvegicus and in the assay filed under Bos taurus [2] were 88.6%, 98.7% and 99.3%, respectively.

For the compound `O=c1c(O)c(-c2ccc(O)cc2O)oc2cc(O)cc(O)c12` [MORIN], the IC50 in assay [5] was found to be 730 nmol/mg; in assay [4], 120 nmol/mg; in assay [3], 430 nmol/mg. Besides, the Activity in the assay listed under Bos taurus [1] was determined as 18%; in the assay listed under Rattus norvegicus, 13.3%; in the assay filed under Bos taurus [2], 31.5%.

For the compound `O=c1cc(-c2ccc(O)cc2)oc2cc(O)cc(O)c12` [APIGENIN], the figures for the Activity in the assay listed under Bos taurus [1], in the assay listed under Rattus norvegicus and in the assay filed under Bos taurus [2] were 12.9%, 84.6% and 93.8%, respectively. Further, the IC50 in assay [3] came out at 920 nmol/mg.

Turning to `O=c1cc(-c2ccccc2)oc2cc(O)cc(O)c12` [CHRYSIN], the Activity in the assay listed under Bos taurus [1] was 11.2%; in the assay filed under Rattus norvegicus it was 77.7%; in the assay filed under Bos taurus [2], 75.8%. In assay [3], the IC50 was found to be 250 nmol/mg.

Regarding `C[C@@H]1O[C@@H](OC[C@H]2O[C@@H](Oc3c(-c4ccc(O)c(O)c4)oc4cc(O)cc(O)c4c3=O)[C@H](O)[C@@H](O)[C@@H]2O)[C@H](O)[C@H](O)[C@H]1O` [RUTIN], the Activity was determined as 49.1% in the assay listed under Bos taurus [1], 66.5% in the assay filed under Rattus norvegicus and 66.7% in the assay filed under Bos taurus [2]. Besides, the IC50 in assay [3] was determined as 1890 nmol/mg.

`O=c1cc(-c2ccccc2)oc2cc(O)ccc12` [7-HYDROXYFLAVONE]: the Activity in the assay filed under Bos taurus [1] amounted to 54.2%; in the assay filed under Rattus norvegicus it was 95.1%; in the assay listed under Bos taurus [2] it was 91.3%. For the same compound, in assay [3], the IC50 turned out to be 1400 nmol/mg.

In the case of `O=c1c(O)c(-c2cc(O)c(O)c(O)c2)oc2cc(O)cc(O)c12` [MYRICETIN], the IC50 was found to be 45 nmol/mg in assay [5], 370 nmol/mg in assay [4] and 35 nmol/mg in assay [3]. For the same compound, the Activity is 12% in the assay listed under Bos taurus [1], 8.4% in the assay listed under Rattus norvegicus and 14.7% in the assay listed under Bos taurus [2].

The record behind these values is ChEMBL document CHEMBL1150720, “Inhibition of mitochondrial NADH oxidase, succinoxidase, and ATPase by naturally occurring flavonoids” (J Nat Prod, 1987).
